One experiment addresses SOS1 (Homo sapiens (Human), UniProt Q07889). The experiment can be described thus: Ras-SOS interaction assay (HTRF), K-Ras G13D utilized. Type of experiment: binding. The settings on record: K-Ras G13D. A general note: Time-resolved FRET reads energy transfer from a long-lived donor to a nearby acceptor.
For experiment [1], the system named is NCI-H1975 (ATCC CRL-5908) cell line comprising an EGFR T790M L858R double mutation. The experiment can be described thus: EGFR-SOS cellular inhibition assay (CellTiter-Glo cell proliferation). The class given is cell-based. The settings on record: Homo sapiens. On the technique in general: ATP-based viability assays read luminescence as a measure of living cells.
Description: A CellTiter-Glo (CTG) luminescent based assay (Promega) is used to assess growth of the cells, as a measurement of the ability of the compounds herein to inhibit EGFR signaling in the cells. […] The day after plating, cells are treated with a dilution series (e.g., a 9 point 3-fold dilution series) of the compounds herein (e.g., approximately 125 μL final volume per well).

[2] abbreviates: 120 h, NCI-H1975 cell proliferation, approximately 5 days, read-out: H1975 IC50.
The mark [3] stands for this setting: read-out: IC50 value against SOS1.
Setting [4] is: NCI-H1975, EGFR T790M L858R double mutation, read-out: IC50 in inhibiting growth of NCI-H1975 cell line.

Read-outs that look alike come from different tables or passages of the source.

SOS1, sequence (Q07889 564-1049): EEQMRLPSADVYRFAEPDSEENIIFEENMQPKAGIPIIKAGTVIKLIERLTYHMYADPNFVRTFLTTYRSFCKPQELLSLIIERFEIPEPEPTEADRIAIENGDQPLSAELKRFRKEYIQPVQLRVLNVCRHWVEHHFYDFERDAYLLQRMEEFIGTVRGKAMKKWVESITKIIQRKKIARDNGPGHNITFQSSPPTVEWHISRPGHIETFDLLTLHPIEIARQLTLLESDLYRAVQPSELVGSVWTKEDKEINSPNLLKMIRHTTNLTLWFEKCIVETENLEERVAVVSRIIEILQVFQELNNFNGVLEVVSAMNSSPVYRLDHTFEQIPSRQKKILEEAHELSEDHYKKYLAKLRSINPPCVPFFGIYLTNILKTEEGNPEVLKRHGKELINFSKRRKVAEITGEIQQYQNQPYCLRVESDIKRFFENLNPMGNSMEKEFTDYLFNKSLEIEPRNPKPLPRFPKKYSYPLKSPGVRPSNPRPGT

As a reminder, the IC50 is the midpoint of a concentration-inhibition curve. As for `C[C@H]1Nc2ncnc3nc(c(C4(C#N)CC4)cc23)OCCCCCCCN2CCC(CC2)C(F)(F)c2cccc1c2` [Compound 137, (R)-1-(2,2-difluoro-4-methyl-7-oxa-5-aza-6(4,7)-pyrido[2,3-d]pyrimidina-1(4,1)-piperidina-3(1,3)-benzenacyclotetradecaphane-6^6-yl)cyclopropane-1-carbonitrile], the IC50 at SOS1 (read-out: SOS1 IC50) is below 100 nM; in experiment [1] (setting [2]), below 1000 nM.
In the same order, the values of `C[C@H]1Nc2ncnc3c2cc(C2CCS(=O)(=O)CC2)c(=O)n3CC(=O)NCCCCN2CCC(CC2)C(F)(F)c2cccc1c2` [Compound 60, (4R)-6^6-(1,1-dioxidotetrahydro-2H-thiopyran-4-yl)-2,2-difluoro-4-methyl-6^7,6^8-dihydro-5,9-diaza-6(4,8)-pyrido[2,3-d]pyrimidina-1(4,1)-piperidina-3(1,3)-benzenacyclotridecaphane-6^7,8-dione] are below 100 nM and below 1000 nM.
On the same counts, the results for `C[C@@H]1C(=O)NCCCCn2c(=O)c(C3(C#N)CC3)cc3c(ncnc32)N[C@H](C)c2cccc(c2)C(F)(F)C2CCN1CC2` [Compound 36, 1-((4R,13R)-2,2-difluoro-4,13-dimethyl-6^7,12-dioxo-6^7,6^8-dihydro-5,11-diaza-6(4,8)-pyrido[2,3-d]pyrimidina-1(4,1)-piperidina-3(1,3)-benzenacyclotridecaphane-6^6-yl)cyclopropane-1-carbonitrile] are below 100 nM and below 1000 nM.
On the same counts, the results for `CC1CCCCCCn2c(=O)c(C3(C#N)CC3)cc3c(ncnc32)N[C@H](C)c2cccc(c2F)C(F)(F)C2CCN1CC2` (stereo partly drawn) [Compound 34, 1-((4R)-3^2,2,2-trifluoro-4,13-dimethyl-6^7-oxo-6^7,6^8-dihydro-5-aza-6(4,8)-pyrido[2,3-d]pyrimidina-1(4,1)-piperidina-3(1,3)-benzenacyclotridecaphane-6^6-yl)cyclopropane-1-carbonitrile] are below 100 nM and below 1000 nM.
As for `C[C@H]1Nc2ncnc3c2cc(C2CCS(=O)(=O)CC2)c(=O)n3CCCCCCCN2CC(C2)CC(F)(F)c2cccc1c2F` [Compound 212, (3R)-1^6-(1,1-dioxidotetrahydro-2H-thiopyran-4-yl)-4^2,5,5-trifluoro-3-methyl-1^7,1^8-dihydro-2-aza-1(4,8)-pyrido[2,3-d]pyrimidina-7(3,1)-azetidina-4(1,3)-benzenacyclotetradecaphan-1^7-one], the IC50 is below 50 nM at SOS1 (setting [3]), below 100 nM on SOS1 (read-out: SOS1 IC50), below 1000 nM in experiment [1] (setting [2]) and below 500 nM in experiment [1] (setting [4]).
For the molecule `C[C@H]1Nc2nnc(c3c2cc(C2CCS(=O)(=O)CC2)c(=O)n3C)OCCCCN2CCC(CC2)C(F)(F)c2cccc1c2F` [Compound 87, (R)-6^3-(1,1-dioxidotetrahydro-2H-thiopyran-4-yl)-3^2,2,2-trifluoro-6^1,4-dimethyl-6^1,6^2-dihydro-7-oxa-5-aza-6(5,8)-pyrido[2,3-d]pyridazina-1(4,1)-piperidina-3(1,3)-benzenacycloundecaphan-6^2-one], the IC50 on SOS1 (read-out: SOS1 IC50) was 100 to 5000 nM; in experiment [1] (setting [2]) it was below 1000 nM.
In the same order, the values of `CC(C)N1CCN(c2cc3c4ncnc3n(c2=O)CCCCCCN2CCC(CC2)CC(F)(F)c2cccc(c2F)[C@@H](C)N4)CC1` [Compound 16, (3R)-4^2,5,5-trifluoro-1^6-(4-isopropylpiperazin-1-yl)-3-methyl-1^7,1^8-dihydro-2-aza-1(4,8)-pyrido[2,3-d]pyrimidina-7(4,1)-piperidina-4(1,3)-benzenacyclotridecaphan-1^7-one] are below 100 nM and below 1000 nM.
In the same order, the values of `C[C@H]1Nc2ncnc3c2cc(C2(C#N)CCS(=O)(=O)CC2)c(=O)n3CCCCCCCN2CCC(CC2)C(F)(F)c2cccc1c2` [Compound 116, 4-((4R)-2,2-difluoro-4-methyl-6^7-oxo-6^7,6^8-dihydro-5-aza-6(4,8)-pyrido[2,3-d]pyrimidina-1(4,1)-piperidina-3(1,3)-benzenacyclotridecaphane-6^6-yl)tetrahydro-2H-thiopyran-4-carbonitrile 1,1-dioxide] are below 100 nM and below 1000 nM.
On the same counts, the results for `C[C@H]1Nc2ncnc3c2cc(C2(C#N)CC2)c(=O)n3CCCCCC/C=C/CN2CCC(CC2)C(F)(F)c2cccc1c2` [Compound 131, 1-((4R,E)-2,2-difluoro-4-methyl-6^7-oxo-6^7,6^8-dihydro-5-aza-6(4,8)-pyrido[2,3-d]pyrimidina-1(4,1)-piperidina-3(1,3)-benzenacyclopentadecaphan-13-en-6^6-yl)cyclopropane-1-carbonitrile] are below 100 nM and below 1000 nM.
In the case of `C[C@H]1Nc2ncnc3c2cc(N2CCS(=O)(=O)CC2)c(=O)n3CCCCCCCN2CCC(CC2)C(F)(F)c2cccc1c2` [Compound 42, (4R)-6^6-(1,1-dioxidothiomorpholino)-2,2-difluoro-4-methyl-6^7,6^8-dihydro-5-aza-6(4,8)-pyrido[2,3-d]pyrimidina-1(4,1)-piperidina-3(1,3)-benzenacyclotridecaphan-6^7-one], the IC50 at SOS1 (read-out: SOS1 IC50) is below 100 nM; in experiment [1] (setting [2]), below 1000 nM.
On the same counts, the results for `C[C@H]1Nc2ncnc3c2cc(C2CCS(=O)(=O)CC2)c(=O)n3CC(=O)N(C)CCCCN2CCC(CC2(C)C)C(F)(F)c2cccc1c2` (stereo partly drawn) [Compound 78, (1^4R,4R)-6^6-(1,1-dioxidotetrahydro-2H-thiopyran-4-yl)-2,2-difluoro-1^2,1^2,4,9-tetramethyl-6^7,6^8-dihydro-5,9-diaza-6(4,8)-pyrido[2,3-d]pyrimidina-1(4,1)-piperidina-3(1,3)-benzenacyclotridecaphane-6^7,8-dione] are below 100 nM and below 1000 nM.
For the molecule `C[C@H]1Nc2ncnc3c2cc(N2CCS(=O)(=O)CC2)c(=O)n3CCCCCCCN2CC(C2)CC(F)(F)c2cccc1c2` [Compound 211, (3R)-1^6-(1,1-dioxidothiomorpholino)-5,5-difluoro-3-methyl-1^7,1^8-dihydro-2-aza-1(4,8)-pyrido[2,3-d]pyrimidina-7(3,1)-azetidina-4(1,3)-benzenacyclotetradecaphan-1^7-one], the IC50 was below 50 nM at SOS1 (setting [3]), below 100 nM at SOS1 (read-out: SOS1 IC50), below 1000 nM in experiment [1] (setting [2]) and below 500 nM in experiment [1] (setting [4]).
As to `C[C@H]1Nc2ncnc3c2cc(N2CCS(=O)(=O)CC2)c(=O)n3CCCOCCCCN2CCC(CC2)C(F)(F)c2cccc1c2` [Compound 186, (4R)-6^6-(1,1-dioxidothiomorpholino)-2,2-difluoro-4-methyl-6^7,6^8-dihydro-10-oxa-5-aza-6(4,8)-pyrido[2,3-d]pyrimidina-1(4,1)-piperidina-3(1,3)-benzenacyclotetradecaphan-6^7-one], the IC50 is below 100 nM at SOS1 (read-out: SOS1 IC50) and below 1000 nM in experiment [1] (setting [2]).
Consider `C[C@H]1Nc2ncnc3c2cc(C2CCS(=O)(=O)CC2)c(=O)n3CCCC/C=C/CN2CCC(CC2(C)C)C(F)(F)c2cccc1c2` (stereo partly drawn) [Compound 74, (4R,E)-6^6-(1,1-dioxidotetrahydro-2H-thiopyran-4-yl)-2,2-difluoro-1^2,1^2,4-trimethyl-6^7,6^8-dihydro-5-aza-6(4,8)-pyrido[2,3-d]pyrimidina-1(4,1)-piperidina-3(1,3)-benzenacyclotridecaphan-11-en-6^7-one], for which the IC50 on SOS1 (read-out: SOS1 IC50) is below 100 nM; in experiment [1] (setting [2]), below 1000 nM.
For the molecule `C[C@H]1Nc2ncnc3c2cc(C2(C#N)CC2)c(=O)n3CC(=O)NCCCCN2CCC(CC2)C(F)(F)c2cccc1c2F` [Compound 158, 1-((4R)-3^2,2,2-trifluoro-4-methyl-6^7,8-dioxo-6^7,6^8-dihydro-5,9-diaza-6(4,8)-pyrido[2,3-d]pyrimidina-1(4,1)-piperidina-3(1,3)-benzenacyclotridecaphane-6^6-yl)cyclopropane-1-carbonitrile], the IC50 on SOS1 (read-out: SOS1 IC50) was below 100 nM; in experiment [1] (setting [2]), below 1000 nM.
For `C[C@H]1Nc2ncnc3c2cc(C2CCS(=O)(=O)CC2)c(=O)n3CCCCCCCCCN2CCC(CC2)C(F)(F)c2cccc1c2` [Compound 47, (4R)-6^6-(1,1-dioxidotetrahydro-2H-thiopyran-4-yl)-2,2-difluoro-4-methyl-6^7,6^8-dihydro-5-aza-6(4,8)-pyrido[2,3-d]pyrimidina-1(4,1)-piperidina-3(1,3)-benzenacyclopentadecaphan-6^7-one], the results for the IC50 (on SOS1 (read-out: SOS1 IC50); in experiment [1] (setting [2])) were below 100 nM and below 1000 nM, respectively.
On the same counts, the results for `C[C@H]1Nc2ncnc3c2cc(C2(C#N)CC2)c(=O)n3CCCCCCN2CCC(CC2)CC(F)(F)c2cccc1c2F` [Compound 15, 1-((3R)-4^2,5,5-trifluoro-3-methyl-1^7-oxo-1^7,1^8-dihydro-2-aza-1(4,8)-pyrido[2,3-d]pyrimidina-7(4,1)-piperidina-4(1,3)-benzenacyclotridecaphane-1^6-yl)cyclopropane-1-carbonitrile] are below 100 nM and below 1000 nM.
In the same order, the values of `C[C@H]1Nc2ncnc3c2cc(N2CCN(C)CC2)c(=O)n3CCCCCCCN2CCC(CC2)C(F)(F)c2cccc1c2F` [Compound 57, (4R)-3^2,2,2-trifluoro-4-methyl-6^6-(4-methylpiperazin-1-yl)-6^7,6^8-dihydro-5-aza-6(4,8)-pyrido[2,3-d]pyrimidina-1(4,1)-piperidina-3(1,3)-benzenacyclotridecaphan-6^7-one] are below 100 nM and below 1000 nM.
On the same counts, the results for `CC(C)N1CCC(c2cc3c4ncnc3n(c2=O)CCOCCCCN2CCC(CC2)CC(F)(F)c2cccc(c2)[C@@H](C)N4)CC1` [Compound 122, (3R)-5,5-difluoro-1^6-(1-isopropylpiperidin-4-yl)-3-methyl-1^7,1^8-dihydro-12-oxa-2-aza-1(4,8)-pyrido[2,3-d]pyrimidina-7(4,1)-piperidina-4(1,3)-benzenacyclotetradecaphan-1^7-one] are below 100 nM and below 1000 nM.

(Values after patent US20230339952A1, “MACROCYCLIC HETEROCYCLES AND USES THEREOF” (Kumquat Biosciences Inc., priority 2022, published 2023).)
